Reference: patent US10500198B2, “Bis-benzylidine piperidone proteasome inhibitor with anticancer activity” (The Johns Hopkins University, priority 2013, dated 2019)
pIC50: −log10 of the molar value.

How the values were obtained:
[1] = system: HCC 1806, HS578T, BT549 and MB-231 breast cancer cells; experiment: Viability of triple negative breast cancer cell lines; type: cell-based; conditions: 48 hours
Protocol: To test the efficacy of various RA compound derivatives on the viability of breast cancer cells, breast cancer cell lines were treated in vitro with varying concentrations of selected compounds. […] FIGS. 16A-16E are a series of data graphs and a western blot showing the efficacy of select compounds against various breast cancer cell lines. […] Briefly HS578T cell lysate was incubated with corresponding compounds for the period of 1 hr at 4 C and subjected to Western blot analysis and probed for HRP-Streptavidin.

[2] = target: T1, RPN13 (Homo sapiens, UniProt Q16186); experiment: Biotin labeling assay; type: binding; conditions: cell lysate or purified RP, streptavidin-peroxidase blot
T1 construct: endogenous in cells; host or cells: HeLa, HS578T cell lysate
Protocol: FIGS. 10 A-10E show a series of graphs and immunoblots showing the effects of several compounds on cell viability and proteasome activity. […] 10B and 10C show immunoblots of the proteasome activity of cell lines treated with the indicated compounds. […] IC50 values were determined in triplicate. In FIG. 10B, HeLa cells were treated for 12 hr and the cell lysate was subjected to immunoblot analysis with anti-Ubiquitin antibody. In FIG. 10C, SiHa cells were treated with the indicated compounds for 12 hr and the lysate subjected to Western blot analysis with anti-Ubiquitin antibody. HeLa cell lysate was treated with RA190B, subjected to SDS-PAGE, and probed with streptavidin-peroxidase following protein transfer to a polyvinylidene difluoride (PVDF) membrane. The streptavidin-peroxidase bound to biotinylated cellular proteins, but a striking new band at 42 kDa appeared in RA190B-treated samples (FIG. 2A). […] IC50 values were determined in triplicate.
To eliminate the possibility that another RP component was required for RA190B interaction, RPN13 or an irrelevant protein (L2) was overexpressed in bacteria. Cell lysate harvested from bacteria either with or without […] induction of ectopic protein expression was labeled with RA190B and probed by blotting with streptavidin-peroxidase. RA190B reacted strongly with a 42 kDa protein only in lysates of bacteria expressing RPN13 (FIG. 2D). […] 800 μL fractions were collected and alternate fractions (1,3,5,7,9,11,13,15,17) were analyzed for the presence of proteasomal proteins (RPN13, RPN2, RPN1 and UCH37) by Western blot analysis.
Human cells (5×10^6 HeLa or 293TT cells) were lysed using MPER (Pierce) lysis buffer (500 μL). RPN13 or HPV L2 transformed bacterial cells (500 μL of culture) were centrifuged to harvest the cells which were re-suspended in 500 μL BPER (Pierce). Cell lysates were centrifuged at 10,000 rpm briefly (2 min) at 4° C. to remove cell debris. Lysate supernatant (200 μL) was pre cleared with streptavidin dyna beads (20 μL) for 1 h at 4° C. to remove non-specific biotin binding and incubated with compounds (indicated concentrations or 20 μM) at 4° C. for 1 hr. An equal amount of each sample (20 μL of lysate) was mixed with an equal volume of Laemmli sample buffer (20 μL) (BioRad) and was boiled for 5 min. […] (24 V). Membrane was blocked with 5% BSA in PBST for 1 hr at room temperature and washed for 20 min (3×PBST). Then the membrane was probed with HRP-streptavidin (1:10,000 in PBST) for 1 hr at room temperature and washed for 30 min (3×PBST) and developed using HyGLO chemiluminescent detection reagent (Denville) for biotin recognition. For the purified enzyme assay, 19S purified proteasome (R&D Systems, Cat. No. E-366) (500 ng) in 19S buffer (20 mM HEPES, 20 mM NaCl, 1 mM DTT, 15% Glycerol) was incubated with compounds (20 μM) for 1 hr at room temperature and mixed with an equal volume of Laemmli sample buffer (20 μL) (BioRad) and was boiled for 5 min. Each sample was loaded onto gel and followed the western blot protocol mentioned above.
Purified 19S proteasome (500 ng) was incubated with corresponding compounds for 30 min and subjected to immunoblot and probed with HRP-conjugated streptavidin. In FIG. 23, the single band at 42 KDa indicates Rpn13 binding to 195. RA183B (20 μM) is used as positive control for Rpn13 binding. Competition experiments were done with RA183 (100 μM) and RA195 (100 μM) along with RA195B (20 μM).

[3] = target: purified 20S proteasomes (Homo sapiens, UniProt P28072+P28074+Q99436); experiment: 20S proteolytic activity assay; type: biochemical; conditions: 1 μM, 30 min
Protocol: Actin was used as a loading control. […] In FIG. 9C-E, purified 20S proteasomes were treated for 30 min with or without compounds (1 μM) prior to the addition of the specific fluorogenic substrate for chymotryptic (9C), tryptic (9D) or PGPH (9E) hydrolytic proteasome capacities. […] DMSO was added to all samples to a final concentration of 0.1% (upper panel). The effect of DMSO is highlighted by including ubiquitin—AMC (0.5 μM) hydrolysis with 2 nM UCH37 lacking DMSO (orange, bottom panel). In FIG. 9H, purified 19S RP (500 nM) in buffer was treated with corresponding compounds 30 min at 37° C. and AMC cleavage was measured with a fluorometer for 20 min. Ubal was used as a positive control.
Release of free AMC by the enzyme reaction was determined by measuring its fluorescence at 380 nm (excitation) and 440 nm (emission). The graphs shown are representative of at least three independent determinations and each data point is the mean of ±SD of triplicate determinations.
20S proteasome cleaves the chymotryptic substrate and releases fluorescent AMC.

[4] = system: C33A; experiment: Cell viability after 48-hr treatment (Table 1); type: cell-based; conditions: Homo sapiens, C-33-A; 48-hr treatment; XTT assay; read-out: IC50, C33A
Protocol: (§1) Cell viability was assayed using CellTiter 960 AQueous One Solution Reagent (Promega, Madison, Wis.). Cells seeded at the concentration of 1,000 cells/well for HeLa, 5,000 cells/well for ES2 and HCT116 and 10,000-20,000 cells/well for other cell lines in 100 μL medium in 96-well plate were treated with RA series compounds at specified concentrations. […]

[5] = system: MM.1S; experiment: Cell viability after 48-hr treatment (Table 1); type: cell-based; conditions: Homo sapiens, MM1.S, XTT assay
Protocol: as §1

[6] = system: SKOV3; experiment: Cell viability after 48-hr treatment (Table 1); type: cell-based; conditions: Homo sapiens, SK-OV-3; 48-hr treatment; XTT assay; read-out: IC50, SKOV3
Protocol: as §1

[7] = system: FaDu; experiment: Cell viability after 48-hr treatment (Table 1); type: cell-based; conditions: Homo sapiens, FaDu; 48-hr treatment; XTT assay; read-out: IC50, FaDu
Protocol: as §1

[8] = system: ES-2; experiment: Cell viability after 48-hr treatment (Table 1); type: cell-based, human; conditions: Homo sapiens, ES-2, XTT assay
Protocol: (§2) Cells seeded at the concentration of 1,000 cells/well for HeLa, 5,000 cells/well for ES2 and HCT116 and 10,000-20,000 cells/well for other cell lines in 100 μL medium in 96-well plate were treated with RA series compounds at specified concentrations. […]

[9] = system: NCl-H929; experiment: Cell viability after 48-hr treatment (Table 1); type: cell-based, human; conditions: Homo sapiens, XTT assay
Protocol: as §2

[10] = system: MM and HeLa cells; experiment: Annexin-V flow cytometry; type: cell-based; conditions: 12 hr after treating
Protocol: Activation of ICE family members such as caspase-3 and -7 results in cleavage of poly ADP ribose polymerase (PARP) to 85 kDa and 25 kDa fragments and drives apoptosis.
Induction of apoptosis was determined using Annexin V-PE Apoptosis Detection Kit I (BD Pharmingen, San Diego, Calif.) according to the manufacturer's protocol.

[11] = system: RPMI8226; experiment: Cell viability after 48-hr treatment (Table 1); type: cell-based; conditions: Homo sapiens, RPMI-8226, XTT assay
Protocol: as §2

[12] = system: HT3; experiment: Cell viability after 48-hr treatment (Table 1); type: cell-based; conditions: Homo sapiens, HT-3; 48-hr treatment; XTT assay; read-out: IC50, HT3
Protocol: as §2

[13] = system: SiHa; experiment: Cell viability after 48-hr treatment (Table 1); type: cell-based; conditions: Homo sapiens, SiHa; 48-hr treatment; XTT assay; read-out: IC50, SiHa
Protocol: as §2

[14] = system: HaCaT; experiment: Cell viability after 48-hr treatment (Table 1); type: cell-based; conditions: Homo sapiens, HaCaT; 48-hr treatment; XTT assay; read-out: IC50, HaCaT
Protocol: as §2

[15] = system: CasKi; experiment: Cell viability after 48-hr treatment (Table 1); type: cell-based; conditions: Homo sapiens, Ca-Ski; 48-hr treatment; XTT assay; read-out: IC50, CasKi
Protocol: (§3) Cell viability was assayed using CellTiter 960 AQueous One Solution Reagent (Promega, Madison, Wis.). Cells seeded at the concentration of 1,000 cells/well for HeLa, 5,000 cells/well for ES2 and HCT116 and 10,000-20,000 cells/well for other cell lines in 100 μL medium in 96-well plate were treated with RA series compounds at specified concentrations. After the indicated periods, cells were incubated according to the manufacturer's protocol with the MTS labeling mixture for 1-2 hr and absorbance at 490 nm measured using a Benchmark Plus microplate spectrophotometer (BIO-RAD).

[16] = system: HOK-16B; experiment: Cell viability after 48-hr treatment (Table 1); type: cell-based; conditions: 48-hr treatment; XTT assay; read-out: IC50, HOK-16B
Protocol: as §3

[17] = system: HeLa; experiment: Cell viability after 48-hr treatment (Table 1); type: cell-based, human; conditions: Homo sapiens, HeLa; 48-hr treatment; XTT assay; read-out: IC50, HeLa
Protocol: as §1

[18] = system: OVCAR3; experiment: Cell viability after 48-hr treatment (Table 1); type: cell-based, human; conditions: Homo sapiens, OVCAR-3, XTT assay
Protocol: as §1

[19] = system: 4UbFL reporter; experiment: Proteasome inhibition in vivo (4UbFL reporter bioluminescence); conditions: i.m. electroporated 4UbFL; RA190 40 mg/kg i.p., bortezomib 1.5 mg/kg i.p.
Protocol: After the indicated time points of treatment, bioluminescence was measured by injection of luciferin and imaging with an IVIS 200 (fold change±SD, *p<0.05, **p<0.01).
Two hours after gene gun delivery of the plasmid or one day post electroporation, mice were injected i.p. with 100 uL of luciferin (3 mg/mL) and anesthetized with isoflurane and optical imaging was performed for basal level luciferase expression. Images were acquired for 10 min with a Xenogen IVIS 200 (Caliper, Hopkinton, Mass.). Equally sized areas were analyzed using Living Image 2.20 software.

[20] = system: HeLa cells; experiment: Cell surface HSP90 staining; type: cell-based, human; conditions: 24 hr
From the text: Cell surface HSP90 was detected by staining with purified anti-HSP90 mAb (Stressgen), followed by PE-conjugated anti-mouse IgG1. The data were acquired with a FACSCalibur and analyzed using CellQuest software.

[21] = Complete blood counts and blood chemistry of C57BL/6 mice carrying TC-1 tumor; conditions: C57BL/6 mice with TC-1 tumor; nine doses every third day: RA190 40 mg/kg p.o., Bortezomib 1.5 mg/kg i.p.; mean ± SD, n = 3;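 note: blood drawn from the heart after euthanasia, cell counts read on an automated hemocytometer, heparinized plasma analyzed on an automated clinical chemistry analyzer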
[22] = system: HeLa cells; experiment: Drug combination index assay; type: cell-based, human; conditions: Homo sapiens, 48 hr, read-out: IC50 (single agent, Compusyn)
Protocol: The combination indices and a normalized isobologram were calculated using Compusyn software (www.combosyn.com).

T1 sequence (Q16186 whole entry): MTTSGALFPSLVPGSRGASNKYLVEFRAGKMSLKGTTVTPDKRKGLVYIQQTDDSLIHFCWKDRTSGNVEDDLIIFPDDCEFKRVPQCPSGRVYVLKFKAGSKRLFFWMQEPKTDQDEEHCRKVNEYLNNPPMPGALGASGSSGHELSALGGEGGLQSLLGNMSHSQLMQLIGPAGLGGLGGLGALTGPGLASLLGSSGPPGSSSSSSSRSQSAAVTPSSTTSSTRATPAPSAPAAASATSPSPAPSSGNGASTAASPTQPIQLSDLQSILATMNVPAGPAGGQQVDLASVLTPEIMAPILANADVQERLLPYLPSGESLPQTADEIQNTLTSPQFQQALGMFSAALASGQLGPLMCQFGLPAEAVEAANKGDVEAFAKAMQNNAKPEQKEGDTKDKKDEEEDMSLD

## C=CC(=O)N[C@@H](Cc1ccccc1)C(=O)N1C/C(=C\c2ccc(Cl)c(Cl)c2)C(=O)/C(=C/c2ccc(Cl)c(Cl)c2)C1 [RA190Acr]
[1]
  potency relative to RA190: potency similar to RA190
[2]
  labeling of / competition for RPN13 (42 kDa band): competes the binding of RA190B to RPN13

## CC(C)C[C@H](NC(=O)[C@H](Cc1ccccc1)NC(=O)c1cnccn1)B(O)O [Bortezomib, reference compound]
[3]
  chymotryptic activity of the 20S proteasome (Suc-LLVY-AMC): inhibits
[4]
  pIC50: > 5.60
[5]
  pIC50: 8.30
[6]
  pIC50: > 5.60
[7]
  pIC50: > 5.60
[8]
  pIC50: 7.70
[9]
  pIC50: 8.30
[10]
  apoptosis (Annexin-V): trigger extensive apoptosis
[11]
  pIC50: 8.00
[12]
  pIC50: > 5.60
[13]
  pIC50: 6.00
[14]
  pIC50: > 5.60
[15]
  pIC50: 7.30
[16]
  pIC50: 7.70
[17]
  pIC50: 7.52
[18]
  pIC50: > 5.60
[19]
  bioluminescence compared to vehicle alone, 4 hr after treatment: 2 fold
  increase in bioluminescence, one day post-treatment: 4 fold
[20]
  cells with cell-surface HSP90: 12.8%
[21]
  ALBNEW (Albumin): 2.50 ± 0.10
  ALPNEW (Alkaline Phosphatase): 49 ± 5.29
  ALTNEW (Alanine Aminotransferase): 26.33 ± 2.51
  AMYL (Amylase): 473 ± 57.86
  ASTNEW (Aspartate aminotransferase): 53 ± 18.52
  BA(Basophils): 0.07 ± 0.06
  BUNNEW (Blood Urea Nitrogen): 22.66 ± 5.13
  CA (Calcium): 8.83 ± 0.60
  CHOL (Cholesterol): 69 ± 7.93
  CK_NEW (Creatinine Kinase): 93.66 ± 3.52
  CREAT (Creatinine): 0.33 ± 0.05
  EO (Eosinophils): 0.64 ± 0.48
  GGTNEW (Gamma-Glutamyl Transferase): 5.00 ± 0.67
  GLU (Glucose): 128 ± 20.29
  HCT(Hematocrit): 42.36 ± 4.15
  HDLNEW (High Density Lipoprotein): 28.33 ± 4.61
  Hb (Hemoglobin): 11.3 ± 0.70
  LDH (lactate Dehydrogenase): 245.33 ± 96
  LY(Lymphocytes): 2.12 ± 1.83
  MCHC (mean corpuscular hemoglobin concentration): 26.73 ± 1.16
  MCV (Mean corpuscular Volume): 55.66 ± 1.72
  MO(Monocytes): 0.20 ± 0.13
  MPV (Mean Platelet Volume): 5.40 ± 0.10
  NE(Neutrophils): 24.06 ± 15.07
  PLT (Platelet): 1346 ± 87.5
  RDW (Red Blood Cell Distribution Width): 20.13 ± 0.61
  TBIL1 (Total bilirubin): 0.26 ± 0.05
  TPROT (Total protein): 4.40 ± 0.26
  TRIG (Triglycerides): 56.66 ± 15.88
  UA (Uric Acid): 2.73 ± 0.87
  WBC(White Blood Cells): 24.85 ± 23.94
[22]
  pIC50: 7.66
